Where two headings read alike, the source gives them in different places.
Experiments:
human 5-HT2A receptor [1] = biological target: T1, human 5-HT2A receptor (Homo sapiens (Human), UniProt P28223); assay: Test 1: binding activity for human 5-HT2A receptor ([3H]Ketanserin); details: CHO cell membrane fraction
Method: (§1) Test 1: Evaluation of Binding Activity for Human 5-HT1A Receptor, Human 5-HT2A Receptor, and Human D2 Receptor
(§2) Binding affinity of the present compound for human 5-HT1A receptor, human 5-HT2A receptor, and human D2 receptor was measured by the following procedures.
(§3) Each mixture was incubated at room temperature for 60 minutes. Then, the mixture was added quickly on a glassfiber filter plate (Multiscreen FB, Millipore, Inc.) coated with 0.3% aqueous polyethylenimine, and vacuum-filtered. Radioactivity remaining on the filter was measured with a liquid scintillation counter (PerkinElmer, Inc.). Binding inhibition rate was calculated from the following formula.
(§4) Ki of each compound was calculated from the following formula. Binding inhibition constant (Ki)=IC50/(1+S/Kd) wherein S is concentration of ligand; Kd is a binding dissociation constant of ligand to membrane, which is calculated from a saturated binding experiment conducted with the same cell membrane. A small Ki value means strong binding ability to a receptor.

human D2 receptor = human D2 receptor (Homo sapiens (Human), UniProt P14416); assay: Test 1: binding activity for human D2 receptor ([3H]Spiperone); details: for Ki: CHO cell membrane fraction, [3H]Spiperone; for D2 Ki/5-HT1A Ki: ratio of D2 Ki to 5-HT1A Ki; for D2 Ki/5-HT2A Ki: ratio of D2 Ki to 5-HT2A Ki
Method: as §1, §2, §3, §4

human 5-HT1A receptor [2] = biological target: T2, human 5-HT1A receptor (Homo sapiens (Human), UniProt P08908); assay: Test 2: agonist activity for human 5-HT1A receptor ([35S]GTPγS binding); assay type: biochemical; details: for EC50: [35S]GTPγS binding, CHO cell membrane fraction expressing human 5-HT1A receptor
Method: Test 2: Evaluation of Agonist Activity for Human 5-HT1A Receptor
CHO cell membrane fraction in which human 5-HT1A receptor was expressed as used in Test 1 was purchased. To a buffer containing guanosine diphosphate were added a test compound dissolved in DMSO, each receptor membrane sample diluted with buffer, and [^35S] Guanosine 5′-O-[gamma-thio]triphosphate (GTPγS). The mixture was incubated at room temperature for 60 minutes. Then, the mixture was added quickly on a glassfiber filter plate (Multiscreen FB, Millipore, Inc.), and vacuum-filtered. Radioactivity remaining on the […] was measured with a liquid scintillation counter. Agonist activity was calculated from the following formula.

human 5-HT1A receptor [3] = biological target: T2, human 5-HT1A receptor; assay: Test 1: binding activity for human 5-HT1A receptor ([3H]8-OH-DPAT); details: CHO cell membrane fraction
Method: as §1, §2, §3
as §4, with “IC50 value was calculated by Hill analysis (Physiology, 1910, 40, 190-200). Ki of” for “Ki of”

[4] = Test 4: metabolic stability test in human hepatic microsome; assay type: in vitro ADME; details: 0.1 mg/mL microsome, 0.1 μmol/L compound, NADPH, 37° C., 30 minutes
Summary of the method: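 Test compound at 0.1 μmol/L incubated 30 min at 37° C with human liver microsomes (0.1 mg/mL) and NADPH (3.2 mmol/L) in 25 mmol/L phosphate buffer, pH 7.4. Residual compound quantified by LC-MS; clearance (mL/min/mg protein) = −LN(residual ratio)/30/0.1.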

human 5-HT2A receptor [5] = biological target: T1, human 5-HT2A receptor; assay: Test 3: antagonist activity for human 5-HT2A receptor (aequorin luminescence, CHO-K1 cells); assay type: cell-based
Method: Test 3: Evaluation of Antagonist Activity for Human 5-HT2A Receptor
Aequorin, Gα16 protein, and each receptor were transiently expressed in CHO-K1 cells (Chinese hamster ovary). […] Each compound dissolved in DMSO was added thereto, and changes in luminescence were measured by FDSS/μCELL functional drug screening system (Hamamatsu Photonics K.K.). Antagonist activity was calculated from the following formula.
Antagonist activity (%)=100×{(Luminescence of well in the presence of 1 nmol/L 5-HT−Luminescence of well containing solvent)−(Luminescence of well in the presence of test compound and 1 nmol/L 5-HT−Luminescence of well containing solvent)}/(Luminescence of well in the presence of 1 nmol/L 5-HT−Luminescence of well containing solvent)

P-gp (MDR1) = P-gp (MDR1) (Homo sapiens (Human), UniProt P08183); assay: Test 9: P-gp substrate property (NFR, MDCKII and MDR1-MDCKII cells); assay type: in vitro ADME; details: ratio of Papp B-A/Papp A-B in MDR1-MDCKII cells to that in MDCKII cells
Method: Evaluation test for binding was carried out as follows with the CHO cell membrane fraction in which human target receptor was expressed. […] Each mixture was incubated at room temperature, added quickly on a glassfiber filter plate (Multiscreen FB, Millipore, Inc.), and vacuum-filtered. Radioactivity remaining on the filter was measured with a liquid scintillation counter (PerkinElmer, Inc.). Binding inhibition rate was calculated from the following formula.
NFR (Net Flux Ratio), which is an index of P-gp substrate property, can be calculated as follows. MDCKII (Madin-Darby canine kidney strain II) cells and MDR1-MDCKII cells in which MDR1 (multidrug resistance protein 1) was overexpressed were used to measure an apparent permeability coefficient (Papp A-B) from lumen (A) to basement membrane (B) and an apparent permeability coefficient (Papp B-A) from basement membrane (B) to lumen (A) of both MDCKII cells and MDR1-MDCKII cells. NFR (Net Flux Ratio) was calculated from the ratio between Ratio (Papp B-A/Papp A-B) of an apparent permeability coefficient of MDR1-MDCKII cells and Ratio of an apparent permeability coefficient of MDCKII cells.

[6] = Test 10: intracerebral transferability of rats (Kp,uu,brain); assay type: in vivo, SD or WKY rats; details: rat, brain and plasma, unbound drug concentration ratio brain/plasma, s.c. or oral, 0.5, 1 or 2 hours
Method: Test 10: Evaluation of Intracerebral Transferability (Test for Intracerebral Transferability of Rats)
In this test, intracerebral transferability of the present compounds was evaluated by the following method. The present compounds were subcutaneously administered as a solution in saline, or orally administered as a suspension in methyl cellulose to 7-week-old SD or WKY rats. Plasma and brain were collected on 0.5 hours, 1 hour, or 2 hours after the administration to measure the drug concentrations in plasma and brain by LC-MS.
Binding rates of the present compound to plasma and brain protein were measured by equilibrium dialysis method.
Kp,uu,brain (unbound drug concentration ratio between brain/plasma) can be calculated by applying the compound concentrations in plasma and brain and the binding rates to plasma and brain protein obtained from the above test into the following formula. Kp,uu,brain=(Compound concentration in brain×(100−Binding rate to brain protein (%))/100)/(Compound concentration in plasma×(100−Binding rate to plasma protein (%))/100)

hERG channel = hERG channel (Homo sapiens (Human), UniProt Q12809); assay: Test 6-1: inhibitory activity for hERG channel (auto patch clamp, Qpatch); assay type: cell-based; details: for IC50: hERG-CHO cells, whole cell patch clamp, Qpatch, read-out: hERG inhibition IC50
Method: Test 6-1: Evaluation of Inhibitory Activity for hERG Channel
Inhibitory activity of the present compound for hERG channel was measured by whole cell patch clamp method with an auto patch clamp system using CHO cells in which hERG channel involved in human rapidly activating delayed rectifier potassium current (IKr) was forcibly expressed.
hERG-CHO cells purchased from ChanTest Cop. were cultured in a CO2 incubator at 37° C., and dissociated from a flask with trypsin shortly before the measurement of hERG current, to prepare a cell suspension.
Extracellular and intracellular fluid used in the measurement were prepared as follows.
Extracellular fluid: 2 mmol/L CaCl2, 1 mmol/L MgCl2, 10 mmol/L HEPES, 4 mmol/L KCl, 145 mmol/L NaCl, 10 mmol/L Glucose
Intracellular fluid: 5.4 mmol/L CaCl2, 1.8 mmol/L MgCl2, 10 mmol/L HEPES, 31 mmol/L KOH, 10 mmol/L EGTA, 120 mmol/L KCl, 4 mmol/L Na2-ATP
Test compound solution: Test compound was dissolved in DMSO to reach the concentration of 2 mmol/L or 20 mmol/L, in order to prepare a test compound solution. […] (Measurement of Current Value and Data Analysis)
The cell suspension, the extracellular fluid, the intracellular fluid, and the measurement plate were set in the auto patch clamp system, and hERG current was measured by whole cell patch clamp method. […] Each pulse interval was 15 seconds. The data analysis was carried out with Qpatch Assay Software (Biolin Scientific). The test was carried out by applying incrementally 4 concentrations of each test compound, and the average of the maximum peak tail currents which were obtained from the last 3 stimulations in each concentration was determined as the evaluated data. Based on the current inhibition rate for a pre-applied current at each concentration of each test compound, IC50 value was calculated by Hill equation with the software.

[7] = agonist activity in the presence of 10 μM compound, relative to 100 μmol/L 5-HT

T2 sequence (P08908 whole entry): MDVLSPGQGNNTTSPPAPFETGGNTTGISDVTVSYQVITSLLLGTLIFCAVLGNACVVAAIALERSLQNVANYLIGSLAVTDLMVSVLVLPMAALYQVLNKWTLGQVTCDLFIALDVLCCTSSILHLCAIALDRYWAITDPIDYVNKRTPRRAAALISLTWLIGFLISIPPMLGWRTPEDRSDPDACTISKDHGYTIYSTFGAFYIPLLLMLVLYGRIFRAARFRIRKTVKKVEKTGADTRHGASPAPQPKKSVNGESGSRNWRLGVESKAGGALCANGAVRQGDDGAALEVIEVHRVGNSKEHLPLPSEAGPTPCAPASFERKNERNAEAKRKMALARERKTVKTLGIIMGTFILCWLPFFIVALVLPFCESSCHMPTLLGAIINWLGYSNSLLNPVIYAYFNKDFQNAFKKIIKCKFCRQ
T1 sequence (P28223 whole entry): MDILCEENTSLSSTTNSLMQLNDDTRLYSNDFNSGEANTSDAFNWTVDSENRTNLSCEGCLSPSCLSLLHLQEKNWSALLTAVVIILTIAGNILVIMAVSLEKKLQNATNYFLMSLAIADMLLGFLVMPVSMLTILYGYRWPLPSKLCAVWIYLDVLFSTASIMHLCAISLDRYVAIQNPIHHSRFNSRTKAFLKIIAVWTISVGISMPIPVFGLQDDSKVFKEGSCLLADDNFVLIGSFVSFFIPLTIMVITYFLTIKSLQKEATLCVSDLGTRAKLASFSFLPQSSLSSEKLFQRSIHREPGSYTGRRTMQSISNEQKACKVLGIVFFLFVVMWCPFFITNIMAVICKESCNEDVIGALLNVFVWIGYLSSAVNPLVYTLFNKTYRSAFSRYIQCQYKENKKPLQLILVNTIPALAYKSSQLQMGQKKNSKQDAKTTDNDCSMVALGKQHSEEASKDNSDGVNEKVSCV
Chain of P-gp (MDR1) (P08183 whole entry, species assumed): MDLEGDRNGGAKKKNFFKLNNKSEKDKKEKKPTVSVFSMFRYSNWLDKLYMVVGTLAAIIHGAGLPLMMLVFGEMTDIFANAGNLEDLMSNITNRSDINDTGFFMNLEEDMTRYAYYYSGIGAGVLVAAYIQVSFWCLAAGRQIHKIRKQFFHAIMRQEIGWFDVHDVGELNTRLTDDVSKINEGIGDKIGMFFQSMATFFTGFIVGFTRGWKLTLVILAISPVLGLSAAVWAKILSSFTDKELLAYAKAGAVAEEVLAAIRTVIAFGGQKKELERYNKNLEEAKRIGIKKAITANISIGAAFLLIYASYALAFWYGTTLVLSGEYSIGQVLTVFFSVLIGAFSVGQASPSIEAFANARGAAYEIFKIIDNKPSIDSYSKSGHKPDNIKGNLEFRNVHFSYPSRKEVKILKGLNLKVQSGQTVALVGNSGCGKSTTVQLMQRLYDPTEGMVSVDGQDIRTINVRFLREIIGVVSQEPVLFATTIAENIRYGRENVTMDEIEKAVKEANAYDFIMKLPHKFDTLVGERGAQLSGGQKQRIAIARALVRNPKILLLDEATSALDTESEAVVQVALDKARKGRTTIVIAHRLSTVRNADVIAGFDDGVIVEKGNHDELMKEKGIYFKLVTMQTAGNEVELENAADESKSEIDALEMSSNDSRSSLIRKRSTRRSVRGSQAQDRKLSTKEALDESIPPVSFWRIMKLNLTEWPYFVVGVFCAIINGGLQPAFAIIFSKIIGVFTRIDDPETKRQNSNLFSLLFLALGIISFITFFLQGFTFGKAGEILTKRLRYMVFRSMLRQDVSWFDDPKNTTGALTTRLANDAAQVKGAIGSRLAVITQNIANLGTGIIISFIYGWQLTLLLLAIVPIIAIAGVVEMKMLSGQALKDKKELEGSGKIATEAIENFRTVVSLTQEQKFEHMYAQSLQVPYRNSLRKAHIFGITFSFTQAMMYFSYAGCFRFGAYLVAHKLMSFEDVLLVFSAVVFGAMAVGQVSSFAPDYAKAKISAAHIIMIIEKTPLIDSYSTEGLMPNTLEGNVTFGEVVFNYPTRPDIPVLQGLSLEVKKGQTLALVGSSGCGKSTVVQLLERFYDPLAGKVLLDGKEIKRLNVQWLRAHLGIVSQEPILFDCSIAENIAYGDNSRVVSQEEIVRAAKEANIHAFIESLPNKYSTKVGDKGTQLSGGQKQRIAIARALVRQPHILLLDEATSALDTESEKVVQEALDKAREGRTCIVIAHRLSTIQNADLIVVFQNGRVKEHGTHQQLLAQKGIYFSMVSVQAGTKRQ
Chain of human D2 receptor (P14416 whole entry): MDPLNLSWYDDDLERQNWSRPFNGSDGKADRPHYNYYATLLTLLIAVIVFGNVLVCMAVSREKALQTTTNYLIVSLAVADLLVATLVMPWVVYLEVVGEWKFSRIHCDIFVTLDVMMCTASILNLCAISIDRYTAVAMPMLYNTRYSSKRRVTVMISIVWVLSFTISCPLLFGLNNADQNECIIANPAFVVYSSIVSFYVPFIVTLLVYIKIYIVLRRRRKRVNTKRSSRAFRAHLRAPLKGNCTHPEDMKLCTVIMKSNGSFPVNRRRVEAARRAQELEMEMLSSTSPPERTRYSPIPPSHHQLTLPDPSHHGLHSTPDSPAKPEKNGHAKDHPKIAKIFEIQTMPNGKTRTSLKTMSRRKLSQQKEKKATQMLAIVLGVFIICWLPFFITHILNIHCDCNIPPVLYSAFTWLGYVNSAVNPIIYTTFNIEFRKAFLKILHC
Chain of hERG channel (Q12809 whole entry): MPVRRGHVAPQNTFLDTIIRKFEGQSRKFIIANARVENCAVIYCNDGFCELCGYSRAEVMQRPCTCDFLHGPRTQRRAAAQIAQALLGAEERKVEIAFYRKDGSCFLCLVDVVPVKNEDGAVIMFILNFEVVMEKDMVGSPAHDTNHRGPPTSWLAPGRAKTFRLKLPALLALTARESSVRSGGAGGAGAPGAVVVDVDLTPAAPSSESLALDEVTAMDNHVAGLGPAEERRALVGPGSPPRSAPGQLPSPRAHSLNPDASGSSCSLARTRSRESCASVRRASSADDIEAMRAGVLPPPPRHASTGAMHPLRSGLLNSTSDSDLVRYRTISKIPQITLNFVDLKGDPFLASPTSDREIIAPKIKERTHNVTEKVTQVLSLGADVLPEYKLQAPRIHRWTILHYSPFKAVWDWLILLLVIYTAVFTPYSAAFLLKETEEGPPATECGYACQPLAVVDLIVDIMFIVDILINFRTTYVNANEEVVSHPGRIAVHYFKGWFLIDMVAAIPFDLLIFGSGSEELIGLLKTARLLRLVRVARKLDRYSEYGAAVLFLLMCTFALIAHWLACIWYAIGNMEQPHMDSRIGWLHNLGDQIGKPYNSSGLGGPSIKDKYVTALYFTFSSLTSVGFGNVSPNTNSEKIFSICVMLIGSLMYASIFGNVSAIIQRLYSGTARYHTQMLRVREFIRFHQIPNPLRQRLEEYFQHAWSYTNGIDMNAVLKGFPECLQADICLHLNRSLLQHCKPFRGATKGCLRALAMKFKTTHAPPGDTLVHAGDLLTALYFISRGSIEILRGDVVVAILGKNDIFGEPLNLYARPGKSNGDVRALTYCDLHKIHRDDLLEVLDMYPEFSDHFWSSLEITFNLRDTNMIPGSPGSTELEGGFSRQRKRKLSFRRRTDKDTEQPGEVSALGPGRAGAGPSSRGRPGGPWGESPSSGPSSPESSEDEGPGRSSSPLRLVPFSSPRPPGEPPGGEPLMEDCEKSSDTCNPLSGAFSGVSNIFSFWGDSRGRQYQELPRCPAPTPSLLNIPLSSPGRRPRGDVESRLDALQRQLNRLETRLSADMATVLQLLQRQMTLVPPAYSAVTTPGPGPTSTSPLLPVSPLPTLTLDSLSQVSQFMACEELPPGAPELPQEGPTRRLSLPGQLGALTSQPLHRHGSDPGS

Structure (SMILES) | Ki (human D2 receptor) [nM] | Ki (human 5-HT1A receptor [3]) [nM] | Metabolic stability in human hepatic microsome [4] [mL/min/mg protein] | NFR (Net Flux Ratio) (P-gp (MDR1)) | Emax at 10 µM (human 5-HT1A receptor [2]; [7]) [%] | other results
Cc1ccc2c(C3CCN(CCn4ccc5cccnc5c4=O)CC3)noc2c1 [Example 118] | 276 | 73.1 | – | – | 5 | Ki (human 5-HT2A receptor [1]): 10 nM; D2 Ki/5-HT1A Ki (human D2 receptor): 3.8; D2 Ki/5-HT2A Ki (human D2 receptor): 27.6
COc1ccc2c(n1)C(=O)N(CCN1CCC(c3noc4ccccc34)CC1)CC2 [Example 187] | – | 1.59 | <0.05 | – | 55 | Ki (human 5-HT2A receptor [1]): 14.5 nM; IC50 (human 5-HT2A receptor [5]; CHO-K1 cells, aequorin/Gα16, 1 nmol/L 5-HT): 89.7 nM; EC50 (human 5-HT1A receptor [2]): 38.2 nM
Cc1nc2c(o1)C(=O)N(CCN1CCC(c3noc4ccccc34)CC1)CC2 [Example 35, 5-{2-[4-(1,2-Benzoisoxazol-3-yl)piperidin-1-yl]ethyl}-2-methyl-6,7-dihydro[1,3]oxazolo[5,4-c]pyridin-4(5H)-one] | – | – | <0.01 | – | – | Kp uu at 2 h [6]: 1.44
O=C1c2cnccc2CCN1CCN1CCC(c2noc3ccccc23)CC1 [Example 13] | – | – | <0.01 | – | 56 | Ki (human 5-HT2A receptor [1]): 8.4 nM
COc1ncc2c(n1)CCN(CCN1CCN(c3noc4ccccc34)CC1)C2=O [Example 179] | > 10000 | 283 | <0.05 | – | – | Ki (human 5-HT2A receptor [1]): 22.9 nM; D2 Ki/5-HT1A Ki (human D2 receptor): >35.3; D2 Ki/5-HT2A Ki (human D2 receptor): >437.6; IC50 (hERG channel): > 10000 nM; hERG inhibition IC50 (nmol/L)/5-HT1A Ki (nmol/L) (hERG channel; ratio of hERG IC50 to 5-HT1A Ki): >35; hERG inhibition IC50 (nmol/L)/5-HT2A Ki (nmol/L) (hERG channel; ratio of hERG IC50 to 5-HT2A Ki): >438
Cn1ncc2c1CCCN(CCN1CCC(c3noc4ccccc34)CC1)C2=O [Example 43] | – | – | <0.01 | 2.2 | – | Kp uu at 2 h [6]: 0.18
O=C1c2ncccc2CCN1CCN1CCC(c2noc3cc(F)c(F)cc23)CC1 [Example 148] | – | – | – | – | – | 5-HT2A antagonist activity (human 5-HT2A receptor [5]; at 10 μM): 45% at 10 μM
COc1cc2c(cn1)C(=O)N(CCN1CCC(c3noc4ccccc34)CC1)CC2 [Example 20] | 1890 | 0.77 | 0.091 | – | – | 5-HT1A agonist activity Emax (human 5-HT1A receptor [2]; [7]): 52%
Cc1cc2c(cn1)C(=O)N(CCN1CCC(c3noc4ccccc34)CC1)CC21CC1 [Example 21] | 2120 | 8.62 | 0.323 | – | 59 | IC50 (hERG channel; human, CHO cells expressing hERG channel): 8000 nM
Cn1cc2c(n1)CCN(CCN1CCN(c3nsc4ccccc34)CC1)C2=O [Example 36, 5-{2-[4-(1,2-Benzoisothiazol-3-yl)piperazin-1-yl]ethyl}-2-methyl-2,5,6,7-tetrahydro-4H-pyrazolo[4,3-c]pyridin-4-one] | – | – | 0.085 | 1.8 | – | Kp uu at 2 h [6]: 0.08
Cn1cnc2c1CCN(CCN1CCN(c3nsc4ccccc34)CC1)C2=O [Example 54] | – | – | <0.01 | 6.6 | – | –

The next lines start with results.

Ki (human D2 receptor) [nM] | Ki (human 5-HT1A receptor [3]) [nM] | Metabolic stability in human hepatic microsome [4] [mL/min/mg protein] | NFR (Net Flux Ratio) (P-gp (MDR1)) | Structure (SMILES) | Emax at 10 µM (human 5-HT1A receptor [2]; [7]) [%] | other results
– | – | <0.05 | 2.3 | O=C1c2nc(Cl)ccc2CCN1CCN1CCC(c2noc3ccccc23)CC1 [Example 146] | – | –
– | – | – | 1.1 | Cn1ncc2c1C(=O)N(CCN1CCN(c3nsc4ccccc34)CC1)CC2 [Example 59] | – | D2 Ki/5-HT1A Ki (human D2 receptor): 63
– | – | 0.018 | 1.5 | Cn1ccc2c1CCN(CCN1CCC(c3noc4ccccc34)CC1)C2=O [Example 60] | – | D2 Ki/5-HT1A Ki (human D2 receptor): 19
1280 | 16.5 | 0.095 | – | COc1ccc2c(n1)C(=O)N(CCN1CCN(c3noc4ccccc34)CC1)CC2 [Example 186] | 39 | IC50 (hERG channel): 2000 nM; EC50 (human 5-HT1A receptor [2]): 97 nM
360 | 10.4 | – | – | Cn1nc(Br)c2c1CCN(CCN1CCN(c3nsc4ccccc34)CC1)C2=O [Example 69] | 45 | –
– | – | <0.05 | 2.4 | CCc1ccc2c(n1)C(=O)N(CCN1CCC(c3noc4ccccc34)CC1)CC2 [Example 185] | – | –

From patent US11466007B2, “Substituted lactams showing serotonin 5-HT receptor activity” (Sumitomo Pharma Co., Ltd., priority 2018, dated 2022)
